From patent US20150313225A1
Read-outs that look alike come from different tables or passages of the source.

Key:
Type in all cases: cell-based
Alternaria solani = assay: Microtest against early blight caused by Alternaria solani (Alteso); settings: solo product
Leptosphaeria nodorum = assay: Microtest against wheat leaf spots caused by Leptosphaeria nodorum (Leptno); settings: solo product; for inhibition of growth at […]: 0.00025 ppm
Pyricularia oryzae = assay: microbe, parasite or virus in culture; settings: for Observed efficacy: solo product
Septoria tritici = assay: Microtest against leaf blotch on wheat caused by Septoria tritici (Septtr); settings: solo product; for inhibition of growth at 1.6e-05 ppm / inhibition of growth at 0.001 ppm / inhibition of growth at 6.3e-05 ppm: Zymoseptoria tritici, 168 h, read-out: Observed efficacy; for inhibition of growth at 1.6e-05 ppm: 0.000016 ppm
Phytophthora infestans = assay: microbe, parasite or virus in culture; settings: for Observed efficacy: solo product
Botrytis cinerea = assay: Microtiterplate test against the grey mold Botrytis cinerea (Botrci); settings: solo product; for inhibition of growth at […]: Botrytis cinerea, 168 h, read-out: Observed efficacy
[1] = Alternaria solani, 168 h, read-out: Observed efficacy
[2] = Parastagonospora nodorum, 168 h, read-out: Observed efficacy
[3] = Pyricularia oryzae, 168 h, read-out: Observed efficacy
[4] = Phytophthora infestans, 168 h, read-out: Observed efficacy

Row | SMILES | Observed efficacy (Pyricularia oryzae; 1 ppm) | Observed efficacy (Pyricularia oryzae; 4 ppm) | Observed efficacy (Phytophthora infestans; 4 ppm) | inhibition of growth at 0.004 ppm (Alternaria solani; [1]) [%] | inhibition of growth at 0.016 ppm (Alternaria solani; [1]) [%] | inhibition of growth at […] (Leptosphaeria nodorum; [2]) [%] | inhibition of growth at 1 ppm (Pyricularia oryzae; [3]) [%] | inhibition of growth at 1.6e-05 ppm (Septoria tritici) [%] | inhibition of growth at 0.001 ppm (Septoria tritici) [%] | inhibition of growth at 6.3e-05 ppm (Septoria tritici) [%] | inhibition of growth at 63 ppm (Phytophthora infestans; [4]) [%] | inhibition of growth at […] (Botrytis cinerea; 0.063 ppm) [%] | other results
1 | C[N+]1(C)CCCCC1.[Cl-] [Mepiquat-cl] | 2 | 1 | 5 |  |  |  |  |  |  |  |  |  | Observed efficacy (Alternaria solani; 16 ppm): 10; Observed efficacy (Alternaria solani; 63 ppm): 16; Observed efficacy (Leptosphaeria nodorum; 63 ppm): 28; Observed efficacy (Pyricularia oryzae; 16 ppm): 4; Observed efficacy (Septoria tritici; 63 ppm): 16; Observed efficacy (Botrytis cinerea; 16 ppm): 11
2 | CC(O)(Cn1cncn1)c1ccc(Oc2ccc(F)cc2)cc1Cl (stereo not shown) [I-18, 2-[2-chloro-4-(4-fluorophenoxy)phenyl]-1-(1,2,4-triazol-1-yl)propan-2-ol] |  |  |  | 0 | 7 | 26 | 5 | 4 | 4 | 0 | 19 | 13 | inhibition of growth at 6.3e-05 ppm (Leptosphaeria nodorum; Parastagonospora nodorum, 168 h, 0.000063 ppm, read-out: Observed efficacy): 22%; inhibition of growth at 0.016 ppm (Pyricularia oryzae; [3]): 1%; inhibition of growth at 16 ppm (Phytophthora infestans; [4]): 15%; inhibition of growth at […] (Botrytis cinerea; 0.25 ppm): 44%
3 | COCC(O)(Cn1cncn1)c1ccc(Oc2ccc(F)cc2)cc1Cl (stereo not shown) [I-27, 2-[2-chloro-4-(4-fluorophenoxy)phenyl]-1-methoxy-3-(1,2,4-triazol-1-yl)propan-2-ol] |  |  |  | 0 | 12 | 8 | 29 | 7 | 9 | 6 | 31 | 22 | inhibition of growth at […] (Alternaria solani; Alternaria solani, 168 h, 0.00025 ppm, read-out: Observed efficacy): 4%; inhibition of growth at 0.001 ppm (Alternaria solani; Alternaria solani, 168 h, 0.001 ppm, read-out: Observed efficacy): 0%; inhibition of growth at 0.001 ppm (Leptosphaeria nodorum; Parastagonospora nodorum, 168 h, 0.001 ppm, read-out: Observed efficacy): 6%; inhibition of growth at 0.004 ppm (Leptosphaeria nodorum; Parastagonospora nodorum, 168 h, 0.004 ppm, read-out: Observed efficacy): 15%; inhibition of growth at 0.016 ppm (Leptosphaeria nodorum; Parastagonospora nodorum, 168 h, 0.016 ppm, read-out: Observed efficacy): 24%
4 | OC(Cc1ccccc1Cl)(Cn1nc[nH]c1=S)C1(Cl)CC1 (stereo not shown) [Prothioconazol] | 13 | 23 | 12 |  |  |  |  |  |  |  |  |  | Observed efficacy (Alternaria solani; 1 ppm): 66; Observed efficacy (Leptosphaeria nodorum; 1 ppm): 43; Observed efficacy (Septoria tritici; 0.016 ppm): 17; Observed efficacy (Phytophthora infestans; 1 ppm): 4; Observed efficacy (Phytophthora infestans; 16 ppm): 35; Observed efficacy (Botrytis cinerea; 1 ppm): 36; Observed efficacy (Botrytis cinerea; 4 ppm): 72
